Test results published in patent publication US6869957B1, “Non-peptide tachykinin receptor antagonists” (Eli Lilly and Company, priority 1993, dated 2005).

Tests used:
human NK-2 receptor = target: T1, human NK-2 receptor (Homo sapiens, UniProt P21452); assay: NK-2 Receptor Binding Assay ([125I]iodohistidyl-neurokinin A, CHO-hNK-2R membranes); settings: for IC50: inhibits fifty percent of binding of [125I]iodohistidyl-neurokinin A to CHO-hNK-2R membranes
T1 construct: expressed in transfected cells; host or cells: CHO-hNK-2R cells (CHO-derived), membrane preparation
T1 sequence (P21452 1-398): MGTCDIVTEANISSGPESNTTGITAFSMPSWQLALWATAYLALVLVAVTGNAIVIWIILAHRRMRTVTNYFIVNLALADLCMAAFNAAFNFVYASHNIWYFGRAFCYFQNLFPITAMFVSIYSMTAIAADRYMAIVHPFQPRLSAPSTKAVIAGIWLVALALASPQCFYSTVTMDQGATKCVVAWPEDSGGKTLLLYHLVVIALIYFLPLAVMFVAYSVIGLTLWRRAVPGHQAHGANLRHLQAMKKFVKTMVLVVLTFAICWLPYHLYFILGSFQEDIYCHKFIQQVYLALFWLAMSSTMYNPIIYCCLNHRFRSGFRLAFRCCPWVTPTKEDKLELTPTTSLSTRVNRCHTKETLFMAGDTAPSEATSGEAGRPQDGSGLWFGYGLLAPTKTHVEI
Method: The biological activity of the compounds of the present invention was evaluated employing an initial screening assay which rapidly and accurately measured the binding of the tested compound to known NK-1 and NK-2 receptor sites. Assays useful for evaluating tachykinin receptor antagonists are well known in the art. See. e.g., J. Jukic, et al., Life Sciences, 49:1463-1469 (1991); N. Kucharczyk, et al., Journal of Medicinal Chemistry, 36:1654-1661 (1993); N. Rouissi, et al., Biochemical and Biophysical Research Communications, 176:894-901 (1991).
NK-2 Receptor Binding Assay
The CHO-hNK-2R cells, a CHO-derived cell line transformed with the human NK-2 receptor, expressing about 400,000 such receptors per cell, were grown in 75 cm^2 flasks or roller bottles in minimal essential medium (alpha modification) with 10% fetal bovine serum. The gene sequence of the human NK-2 receptor is given in N. P. Gerard, et al., Journal of Biological Chemistry, 265:20455-20462 (1990).
For preparation of membranes, 30 confluent roller bottle cultures were dissociated by washing each roller bottle with 10 ml of Dulbecco's phosphate buffered saline (PBS) without calcium and magnesium, followed by addition of 10 ml of enzyme-free cell dissociation solution (PBS-based, from Specialty Media, Inc.). After an additional 15 minutes, the dissociated cells were pooled and centrifuged at 1,000 RPM for 10 minutes in a clinical centrifuge. Membranes were prepared by homogenization of the cell pellets in 300 ml 50 mM Tris buffer, pH 7.4 with a Tekma® homogenizer for 10-15 seconds, followed by centrifugation at 12,000 RPM (20,000×g) for 30 minutes using a Beckman JA-14® rotor. The pellets were washed once using the above procedure. and the final pellets were resuspended in 100-120 ml 50 mM Tris buffer, pH 7.4, and 4 ml aliquots stored frozen at −70° C. The protein concentration of this preparation was 2 mg/ml.
For the receptor binding assay, one 4-ml aliquot of the CHO-hNK-2R membrane preparation was suspended in 40 ml of assay buffer containing 50 mM Tris, pH 7.4, 3 mM manganese chloride, 0.02% bovine serum albumin (BSA) and 4 μg/ml chymostatin. A 200 μl volume of the homogenate (40 μg protein) was used per sample. The radioactive ligand was [^125I]iodohistidyl-neurokinin A (New England Nuclear, NEX-252), 2200 Ci/mmol. The ligand was prepared in assay buffer at 20 nCi per 100 μl; the final concentration in the assay was 20 pM. Non-specific binding was determined using 1 μM eledoisin. Ten concentrations of eledoisin from 0.1 to 1000 nM were used for a standard concentration-response curve.
All samples and standards were added to the incubation in 10 μl dimethylsulfoxide (DMSO) for screening (single dose) or in 5 μl DMSO for IC50 determinations. The order of additions for incubation was 190 or 195 μl assay buffer, 200 μl homogenate, 10 or 5 μl sample in DMSO, 100 μl radioactive ligand. The samples were incubated 1 hr at room temperature and then filtered on a 48 well Brandel cell harvester through GF/B filters which had been presoaked for two hours in 50 mM Tris buffer, pH 7.7, containing 0.5% BSA. The filter was washed 3 times with approximately 3 ml of cold 50 mm Tris buffer, pH 7.7. The filter circles were then punched into 12×75 mm polystyrene tubes and counted in a gamma counter.

NK-1 receptor = target: T2, NK-1 receptor (Homo sapiens, UniProt P25103); assay: NK-1 Receptor Binding Assay (125I-labeled substance P, IM9 cells); settings: for IC50: inhibits fifty percent of binding of 125I-substance P to IM9 cells
T2 construct: endogenous in cells; host or cells: IM9 cells (human cell line), whole cells
T2 sequence (P25103 whole entry): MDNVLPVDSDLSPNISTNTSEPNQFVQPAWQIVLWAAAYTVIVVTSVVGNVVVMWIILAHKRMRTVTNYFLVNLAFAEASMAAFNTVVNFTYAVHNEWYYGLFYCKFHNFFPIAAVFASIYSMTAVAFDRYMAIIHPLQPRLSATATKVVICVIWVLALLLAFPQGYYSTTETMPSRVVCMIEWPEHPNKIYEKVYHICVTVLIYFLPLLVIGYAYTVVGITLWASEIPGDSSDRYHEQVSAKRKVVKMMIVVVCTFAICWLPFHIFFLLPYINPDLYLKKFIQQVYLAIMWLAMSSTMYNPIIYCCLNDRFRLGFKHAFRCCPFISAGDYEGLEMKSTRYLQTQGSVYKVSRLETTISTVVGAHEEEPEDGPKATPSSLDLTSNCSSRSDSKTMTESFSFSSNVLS
Method: The biological activity of the compounds of the present invention was evaluated employing an initial screening assay which rapidly and accurately measured the binding of the tested compound to known NK-1 and NK-2 receptor sites. Assays useful for evaluating tachykinin receptor antagonists are well known in the art.
NK-1 Receptor Binding Assay
Radioreceptor binding assays were performed using a derivative of a previously published protocol.
The IM9 cell line is a well-characterized and readily available human cell line.
The reaction was terminated by filtration through a glass fiber filter harvesting system using filters previously soaked for 20 minutes in 0.1% polyethylenimine. Specific binding of labeled substance P was determined in the presence of 20 nM unlabeled ligand.

| Compound | IC50 (human NK-2 receptor) [nM] | IC50 (NK-1 receptor) [nM] | further results |
| --- | --- | --- | --- |
| COc1ccccc1CN(CC(Cc1c[nH]c2ccccc12)NC(=O)CN1CCCCC1)C(C)=O (centres unmarked) [Example 60] | 3900 | 24 | – |
| COc1ccccc1CNCC(Cc1cccc2ccccc12)NC(=O)CN1CCN(c2ccccc2)CC1 (centres unmarked) [Example 135] | 430 | – | NK-1 percent inhibition of binding (NK-1 receptor; @ 1 μM): 75% @ |
| COc1ccccc1CN(CC(Cc1c[nH]c2ccccc12)NC(=O)CN1CCC(N(C)C)CC1)C(C)=O (centres unmarked) [Example 66] | 7200 | 4.6 | – |
| COc1ccccc1CN(CC(Cc1c[nH]c2ccccc12)NC(=O)CN1CCN(c2ccccc2)CC1)C(=O)CC(=O)O (centres unmarked) [Example 31] | 6200 | 9.2 | – |
| COc1ccccc1CNCC(Cc1c[nH]c2ccccc12)NC(=O)CN1CCC(N2CCCCC2)CC1 (centres unmarked) [Example 45] | 5300 | 65 | – |
| CCCCN(CC(Cc1c[nH]c2ccccc12)NC(c1ccccc1)(c1ccccc1)c1ccccc1)C(C)=O (centres unmarked) [Example 165] | 10400 | – | NK-1 percent inhibition of binding (NK-1 receptor; @ 5 μM): 3% @ 5 μM |
| CC(=O)N(Cc1ccccc1[N+](=O)[O-])CC(Cc1c[nH]c2ccccc12)NC(=O)CN1CCN(c2ccccc2)CC1 (centres unmarked) [Example 16] | 1200 | 4.2 | – |
| COc1ccccc1CN(CC(Cc1c[nH]c2ccccc12)NC(=O)CN1CCN(C)CC1)C(C)=O (centres unmarked) [Example 71] | 8900 | 7.5 | – |
| CC(C)(C)OC(=O)NCC(Cc1c[nH]c2ccccc12)NC(=O)CN1CCN(c2ccccc2)CC1 (centres unmarked) [Example 151, 1-t-butoxycarbonylamino-3-(1H-indol-3-yl)-2-[N-(2-((4-phenyl)piperazin-1-yl)acetyl)amino]propane] | 1700 | 1400 | – |
| CCN(Cc1ccccc1OC)CC(Cc1c[nH]c2ccccc12)NC(=O)CN1CCN(c2ccccc2)CC1 (centres unmarked) [Example 9] | 640 | 84 | – |
| COc1ccccc1CN(CC(Cc1c[nH]c2ccc(C)cc12)NC(=O)CN1CCC(N2CCCCC2)CC1)C(C)=O (centres unmarked) [Example 126] | 3400 | 2.8 | – |
| CC(=O)N(CC(Cc1c[nH]c2ccccc12)NC(=O)CN1CCC(N2CCCCC2)CC1)C(C)c1ccccc1 (centres unmarked) [Example 103] | 3700 | 82 | – |
| COc1ccccc1CN(CC(Cc1c[nH]c2ccccc12)NC(=O)CN1CC=C(c2ccccc2)CC1)C(C)=O (centres unmarked) [Example 67] | 750 | 3.8 | – |
| COc1ccccc1CN(CC(N)Cc1cn(C)c2ccccc12)C(C)=O (centres unmarked) [Example 160] | 19000 | – | NK-1 percent inhibition of binding (NK-1 receptor; @ 5 μM): 0% @ |
| COc1ccc(CN(CC(Cc2c[nH]c3ccccc23)NC(=O)CN2CCN(c3ccccc3)CC2)C(C)=O)cc1 (centres unmarked) [Example 22] | 3300 | 2.1 | – |
| COc1ccccc1CN(CC(Cc1ccccc1)NC(=O)CN1CCC(N2CCCCC2)CC1)C(C)=O (centres unmarked) [Example 148] | 8500 | 24 | – |
| COc1ccccc1CN(CC(Cc1c[nH]c2ccccc12)NC(=O)CN1CCN(c2ccccc2)CC1)C(=O)CN (centres unmarked) [Example 34] | 590 | 6.2 | – |
| COc1ccccc1CN(CC(Cc1c[nH]c2ccccc12)NC(=O)CN1CCN(c2ncccn2)CC1)C(C)=O (centres unmarked) [Example 78] | 2100 | 10 | – |
| COc1ccccc1CN(CC(Cc1c[nH]c2ccccc12)NC(=O)CNCCNc1ccccc1)C(C)=O (centres unmarked) [Example 58] | 340 | 14 | – |

| Compound | IC50 (human NK-2 receptor) [nM] | IC50 (NK-1 receptor) [nM] | further results |
| --- | --- | --- | --- |
| COc1ccccc1CN(CC(Cc1c[nH]c2ccccc12)NC(C)=O)C(C)=O (centres unmarked) [Example 106] | – | 68 | inhibition at 10 µM (human NK-2 receptor; @ 10 μM, read-out: NK-2 percent inhibition of binding): 33% |
| CC(=O)NC(Cc1c[nH]c2ccccc12)CN(C(C)=O)C(C)c1ccccc1 (centres unmarked) [Example 100] | – | – | NK-2 percent inhibition of binding (human NK-2 receptor; @ 10 μM): 40% @; NK-1 percent inhibition of binding (NK-1 receptor; @ 1 μM): 77% @ |
| COc1ccccc1CNCC(NC(c1ccccc1)(c1ccccc1)c1ccccc1)c1ccccc1 (centres unmarked) [Example 173] | 2000 | 74 | – |
| CCOC(=O)N(Cc1ccccc1OC)CC(Cc1c[nH]c2ccccc12)NC(=O)CN1CCN(c2ccccc2)CC1 (centres unmarked) [Example 28, 1-[N-ethoxycarbonyl-N-(2-methoxybenzyl)amino]-3-(1H-indol-3-yl)-2-[N-(2-((4-phenyl)piperazin-1-yl)acetyl)amino]propane] | 1000 | 1.7 | – |
| COc1ccccc1CN(CC(Cc1c[nH]c2ccccc12)NC(=O)CNCc1ccncc1)C(C)=O (centres unmarked) [Example 83] | 5200 | 8.4 | – |
| COc1ccccc1CN(CC(Cc1c[nH]c2ccccc12)NC(=O)CN1CCN(c2ccccc2)CC1)C(=O)CN(C)C (centres unmarked) [Example 35] | 600 | 0.89 | – |
| COc1ccccc1CN(CC(Cc1c[nH]c2ccccc12)NC(=O)CN1CCCC1)C(C)=O (centres unmarked) [Example 59] | 3700 | 7.3 | – |
| CC(=O)NC(Cc1c[nH]c2ccccc12)CN(Cc1ccccc1Cl)C(=O)CN1CCC(N2CCCCC2)CC1 (centres unmarked) [Example 109] | 2000 | 190 | – |
| COc1ccccc1CN(CC(Cc1c[nH]c2ccccc12)NC(=O)CN1CCN(C(C)=O)CC1)C(C)=O (centres unmarked) [Example 79] | 6100 | 38 | – |
| COc1ccccc1CNCC(Cc1c[nH]c2ccccc12)NC(=O)CN1CCC(N2CCCCC2)CC1 (centres unmarked) [Example 44] | – | 25 | NK-2 percent inhibition of binding (human NK-2 receptor; @ 10 μM): 54 % at |
| COc1ccccc1CN(CC(Cc1c[nH]c2ccccc12)NC(=O)CN1CCN(c2ccccc2)CC1)C(=O)CNC(=O)OC(C)(C)C (centres unmarked) [Example 36] | 120 | 10 | – |
| COc1ccccc1CN(CC(Cc1c[nH]c2cccc(C)c12)NC(=O)CN1CCC(N2CCCCC2)CC1)C(C)=O (centres unmarked) [Example 125] | 2100 | 0.66 | – |
| CC(=O)NC(Cc1c[nH]c2ccccc12)CN(Cc1ccccc1)C(=O)CN1CCC(N2CCCCC2)CC1 (centres unmarked) [Example 108] | 3500 | – | NK-1 percent inhibition of binding (NK-1 receptor; @ 1 μM): 76% @ |
| CC(=O)N(CC(Cc1c[nH]c2ccccc12)NC(=O)CN1CCC(N2CCCCC2)CC1)C(C)c1ccccc1 (centres unmarked) [Example 104] | 1600 | 0.62 | – |
| COc1ccccc1CNCC(Cc1c[nH]c2ccccc12)NC(=O)CN1CCN(c2ccccc2)CC1 (centres unmarked) [Example 4] | 1500 | 40 | – |
| COc1ccccc1CN(CC(CC1CNc2ccccc21)NC(=O)CN1CCN(c2ccccc2)CC1)C(C)=O (mixture of isomers) [Example 144] | 1200 | 52 | – |
| COc1ccccc1CN(CC(NC(=O)CN1CCC(N2CCCCC2)CC1)c1ccccc1)C(C)=O (centres unmarked) [Example 146] | 3900 | 420 | – |
| CC(=O)NC(Cc1c[nH]c2ccccc12)CN(C(C)=O)C(C)c1ccccc1 (centres unmarked) [Example 99] | – | – | NK-2 percent inhibition of binding (human NK-2 receptor; @ 10 μM): 54% @; NK-1 percent inhibition of binding (NK-1 receptor; @ 1 μM): 15% @ |
